According to PMC9231303, “Pharmacokinetic–Pharmacometabolomic Approach in Early-Phase Clinical Trials: A Way Forward for Targeted Therapy in Type 2 Diabetes” (Pharmaceutics, 2022):
“And” between values parts separate entries of the source, which are not always exact repeats. Identical values can stand only once. “Also recorded” adds a separate entry of the source. Like-named read-outs stand apart in the source and are kept apart here.

Experiments:
[1] = system: human metabolic pathways (KEGG); assay: Untargeted plasma pharmacometabolomics dataset A (pre-dose versus T2.5, 3, 3.5 h, n = 6), mummichog functional pathway analysis; details: time course 0–12 h
[2] = cited from earlier work
[3] = system: human metabolic pathways (KEGG); assay: Untargeted urine pharmacometabolomics (pre-dose U0 versus U1 0–4 h, U2 4–8 h, U3 8–12 h, n = 6), mummichog functional pathway analysis; type: in vivo; details: urine collections 0–12 h
clinical = details: human, in vivo
[4] = Clinical safety, adverse event and glucose monitoring after single-dose metformin 1000 mg in healthy subjects; type: in vivo, human
Procedure: Three cohorts were planned to ensure sufficient clinical ward staff and space to monitor every subject on the dosing day. Subjects were housed in a controlled environment, and standardized meals were provided to each cohort. The blood samples were collected using an ethylenediaminetetraacetic acid (EDTA) tube and centrifuged at 10,000 rpm for 10 min at 4. The plasma samples together with the urine samples were kept in a -80 °C freezer in cryovials for further analysis. The subjects were monitored for adverse events until seven days post-dose. Pre-dose and peak-concentration plasma samples were used for untargeted pharmacometabolomic analysis to determine the treatment metabotypes.

For CN(C)C(=N)N=C(N)N [metformin], the “metformin intensity in plasma (untargeted LCMS, positive mode)” value [1] is given as “a reducing trend happened at 8 h and a return to zero at 12 h”, the peak plasma concentration ([2]; diabetic patients, 1000 mg twice daily chronically) is given as “approximately 40 µM” and the “plasma concentration reached within three hours” value ([2]; oral 1000 mg, non-diabetic subjects) is given as 25 µM. The “metformin in urine (untargeted LCMS, positive mode)” value [3] was “achieved high concentration in the first 8 h and a slight reduction during 8–12 h”, the Tmax (male, human, in vivo) was 3 h and the T_max (male, human, in vivo, po) was 2.5 (2.5–3.0) h. The CL (male, human, in vivo, po, 1000 mg) was 1884 (32.3) mL/min, the Tmax (subject S6) was 2 h and the Tmax (subject S8) was 3.5 h and 2 h. The Cmax (subject S10) was 1391.3 ng/mL, the Tmax (subject S15) was 4 h and the Tmax (subject S16) was 2 h. The Cmax (subject S17) was 1381.7 ng/mL, the Tmax (subject S17) was 4 h and the Cmax (clinical; 1000 mg, subject S4) was 1430 ng/mL. It also gave a Cmax (clinical; 1000 mg, subject S9) of 1170 ng/mL, a Tmax (clinical; male) of 2.65 h and an AUC(0-t) (clinical; male, 1000 mg) of 10900 ng·h/mL. It also gave a k el (clinical; male, Ke) of 3.97e-05 s⁻¹, an AUC (clinical; male, po, 1000 mg) of 9510 ng·h/mL and an AUC(0-t) (clinical; male, po, 1000 mg, AUC_0–24) of 8960 ng·h/mL. The Glucose ([4]; 4 hours post-dose (before lunch), mean of 17 subjects) was 4.7 mmol/L, the Glucose ([4]; 4 hours post-dose, subject S01) was 5.0 mmol/L and the Glucose ([4]; 4 hours post-dose, subject S02) was 4.7 mmol/L. For the same molecule, the Glucose ([4]; 4 hours post-dose, subject S04) was 4.8 mmol/L, the Glucose ([4]; 4 hours post-dose, subject S05) was 5.2 mmol/L and the Glucose ([4]; 4 hours post-dose, subject S06) was 4.6 mmol/L. The Glucose ([4]; 4 hours post-dose, subject S07) was 4.7 mmol/L, the Glucose ([4]; 4 hours post-dose, subject S08) was 4.3 mmol/L and the Glucose ([4]; 4 hours post-dose, subject S09) was 4.4 mmol/L. The Glucose ([4]; 4 hours post-dose, subject S10) was 4.9 mmol/L, the Glucose ([4]; 4 hours post-dose, subject S11) was 4.7 mmol/L and the Glucose ([4]; 4 hours post-dose, subject S12) was 5.2 mmol/L. For the same molecule, the Glucose ([4]; 4 hours post-dose, subject S13) was 4.4 mmol/L, the Glucose ([4]; 4 hours post-dose, subject S14) was 4.7 mmol/L and the Glucose ([4]; 4 hours post-dose, subject S15) was 4.4 mmol/L. The Glucose ([4]; 4 hours post-dose, subject S16) was 4.9 mmol/L, the Glucose ([4]; 4 hours post-dose, subject S17) was 4.6 mmol/L and the Glucose ([4]; 4 hours post-dose, subject S18) was 3.9 mmol/L. The clinical laboratory characteristics ([4]; screening versus follow-up, clinician judgement) was “within normal range and considered no significant changes” and the adverse drug reaction ([4]; single dose 1000 mg, 17 healthy subjects, monitored until seven days post-dose) was “One subject experienced abdominal pain after the dosing; also recorded: stomach cramps; also recorded: one side effect was observed”.
